ChEMBL document CHEMBL6083230, “Synthesis and biological evaluation of ferrostatin-based diamide derivatives as new ferroptosis inhibitors” (Bioorg Med Chem Lett, 2024)
Values after ≈ are worked out from the molar mass of the structure shown. Active and inactive are the calls of the source. No cut-off for these calls is given here.

Experiments:
HUVEC [1] = experiment: Anti-ferroptosis activity against […]-induced ferroptosis in HUVEC cells assessed as increase in cell viability at 10 uM incubated for 24 hrs by SRB assay; format: functional, cell-based; conditions: Homo sapiens
HUVEC [2] = experiment: Anti-ferroptosis activity against […]-induced ferroptosis in HUVEC cells assessed as increase in cell viability incubated for 24 hrs by SRB assay; format: functional, cell-based; conditions: Homo sapiens
HUVEC [3] = experiment: Anti-ferroptosis activity against erastin-induced ferroptosis in HUVEC cells assessed as reduction in malondialdehyde content at 10 uM incubated for 24 hrs by lipid peroxidation MDA assay; format: functional, cell-based; conditions: Homo sapiens
[4] = Metabolic stability in human liver microsomes assessed as half-life; format: ADME, Microsome
[5] = Stability in mouse plasma assessed as parent compound remaining measured after 6 hrs; format: ADME, cell-free; conditions: read-out: Stability
HUVEC [6] = experiment: Anti-ferroptosis activity against erastin-induced ferroptosis in HUVEC cells assessed as upregulation of intracellular GSH level at 10 uM incubated for 24 hrs; format: functional, cell-based; conditions: Homo sapiens
HUVEC [7] = experiment: Anti-ferroptosis activity against erastin-induced ferroptosis in HUVEC cells assessed as upregulation of intracellular GPX4 level at 10 uM incubated for 24 hrs by Western blot analysis; format: functional, cell-based; conditions: Homo sapiens
HUVEC [8] = experiment: Anti-ferroptosis activity against erastin-induced ferroptosis in HUVEC cells assessed as decrease in free ferrous ion level at 10 uM incubated for 24 hrs by Ferro orange fluorescent probe based assay; format: functional, cell-based; conditions: Homo sapiens
HUVEC [9] = experiment: Anti-ferroptosis activity against erastin-induced ferroptosis in HUVEC cells assessed as decrease in intracellular lipid ROS level at 10 uM incubated for 24 hrs by BODIPY 581/591 dye based assay; format: functional, cell-based; conditions: Homo sapiens
[10] = Metabolic stability in mouse liver microsomes assessed as half-life; format: ADME, Microsome
[11] = Kinetic solubility of compound; format: physicochemical; conditions: read-out: Kinetic_solubility
HUVEC [12] = experiment: Anti-ferroptosis activity against erastin-induced ferroptosis in HUVEC cells assessed as reduction in accumulation of lipid peroxidation at 10 uM incubated for 24 hrs by LPO assay; format: functional, cell-based; conditions: Homo sapiens

SMILES | Activity (HUVEC [1]) | EC50 (HUVEC [2]) | other results
CCNC(=O)c1ccc(NC2CCCCC2)c(NC(=O)Cc2ccc(F)c(Br)c2)c1 | Active |  | 
CCNC(=O)c1ccc(NC2CCCCC2)c(NC(=O)Cc2cc(OC)c(OC)c(OC)c2)c1 | inactive |  | 
CCNC(=O)c1ccc(NC2CCCCC2)c(NC(=O)Cc2cccc(Br)c2)c1 | inactive |  | 
CCNC(=O)c1ccc(NC2CCCCC2)c(NC(=O)Cc2cc(F)c(F)cc2Br)c1 | Active; Compound Exhibited Comparable Activity To Ferrostatin-1 | 0.81 µM | 
CCOC(=O)c1ccc(NC2CCCCC2)c(N)c1 | Active |  | Activity (HUVEC [3]): Active; half-life [4]: 16.8 min; remaining at 6 h [5]: 18%; Activity (HUVEC [6]): Active; Activity (HUVEC [7]): Active; Activity (HUVEC [8]): Active; Activity (HUVEC [9]): Active; half-life [10]: 2.7 min; solubility kinetic [11]: > 200 µM; Activity (HUVEC [12]): Active
CCNC(=O)c1ccc(NC2CCCCC2)c(NC(=O)/C=C/c2ccccc2)c1 | Active; Compound Exhibited Comparable Activity To Ferrostatin-1 | 0.9 µM | 
CCNC(=O)c1ccc(NC2CCCCC2)c(NC(=O)Cc2ccc(C)cc2)c1 | inactive |  | 
CCNC(=O)c1ccc(NC2CCCCC2)c(NC(=O)Cc2ccc(OC)c(Br)c2)c1 | inactive |  | 
CCNC(=O)c1ccc(NC2CCCCC2)c(NC(=O)Cc2ccc(F)cc2)c1 | Active |  | 
CCNC(=O)c1ccc(NC2CCCCC2)c(NC(=O)CCc2ccc(OC)cc2)c1 | Active |  | 
CCNC(=O)c1ccc(NC2CCCCC2)c(NC(=O)Cc2cccc(OC)c2)c1 | Active |  | 
CCNC(=O)c1ccc(NC2CCCCC2)c(NC(=O)/C=C/c2cccc(Br)c2)c1 | Active |  | 
CCNC(=O)c1ccc(NC2CCCCC2)c(NC(=O)/C=C/c2ccc(O)c(OC)c2)c1 | Active |  | 
CCNC(=O)c1ccc(NC2CCCCC2)c(NC(=O)Cc2ccc(OC)c(OC)c2)c1 | Active |  | 
CCNC(=O)c1ccc(NC2CCCCC2)c(NC(=O)Cc2cc(Br)ccc2F)c1 | Active |  | 
CCNC(=O)c1ccc(NC2CCCCC2)c(NC(=O)/C=C/c2ccccc2OC)c1 | Active; Compound Exhibited Comparable Activity To Ferrostatin-1 | 1.1 µM | 
CCNC(=O)c1ccc(NC2CCCCC2)c(NCc2ccccc2)c1 | Active; Compound Exhibited Comparable Activity To Ferrostatin-1 | 6.2 µM | half-life [4]: 38.9 min; remaining at 6 h [5]: 0%; half-life [10]: 19.6 min; solubility kinetic [11]: 50 µM (≈ 17.6 µg/mL)
CCNC(=O)c1ccc(NC2CCCCC2)c(NC(=O)C(c2ccccc2)c2ccccc2)c1 | Active; Compound Exhibited Comparable Activity To Ferrostatin-1 | 1 µM | 
CCNC(=O)c1ccc(NC2CCCCC2)c(NC(=O)Cc2cc(Br)ccc2Br)c1 | inactive |  | 
CCNC(=O)c1ccc(NC2CCCCC2)c(NC(=O)Cc2cc(Br)cc(Br)c2)c1 | Active |  | 
CCNC(=O)c1ccc(NC2CCCCC2)c(NC(=O)Cc2ccc(OC)cc2)c1 | Active; Compound Exhibited Comparable Activity To Ferrostatin-1 | 0.98 µM | 
CCNC(=O)c1ccc(NC2CCCCC2)c(NC(=O)/C=C/c2cccc(OC)c2OC)c1 | Active |  | 
CCNC(=O)c1ccc(NC2CCCCC2)c(NC(=O)/C=C/c2cc(OC)c(OC)cc2OC)c1 | Active; Compound Exhibited Comparable Activity To Ferrostatin-1; Most Significant Efficacy Observed | 0.58 µM | Activity (HUVEC [3]): Active; half-life [4]: 62.7 min; remaining at 6 h [5]: 48%; Activity (HUVEC [6]): Active; Activity (HUVEC [7]): Active; Activity (HUVEC [8]): Active; Higher Effectiveness Compared To Ferrostatin-1; Activity (HUVEC [9]): Active; half-life [10]: 31.4 min; solubility kinetic [11]: 33.3 µM (≈ 16 µg/mL); Activity (HUVEC [12]): Active
